Earlier results as cited in patent US11896043B2, “Intestinal immune-enhancing agent, food product, and medicament” (DAICEL CORPORATION, priority 2017, dated 2024).

System: IgA

Structure (SMILES): OC[C@H]1O[C@@H](O[C@H]2[C@H](O)[C@@H](O)[C@@H](O[C@]3(CO)O[C@H](CO)[C@@H](O)[C@@H]3O)O[C@@H]2CO)[C@H](O)[C@@H](O)[C@H]1O [lactosucrose, 4^G-β-D-galactosylsucrose]
- amounts of IgA in the feces and cecal contents (2% and 5% LS added feed for 4 weeks): significantly increased
- amount of IgA in the feces (after two weeks): decreased greatly
- amount of IgA in the feces relative to the control group (one week after ingestion): about twice
